This note sets out measurements from paper doi:10.1101/2023.04.01.534865v1 (biorxiv, 2023).

This assay addresses T1, GST-OSBP(377-807) (Homo sapiens, UniProt P22059).
T1 sequence (P22059 377-807): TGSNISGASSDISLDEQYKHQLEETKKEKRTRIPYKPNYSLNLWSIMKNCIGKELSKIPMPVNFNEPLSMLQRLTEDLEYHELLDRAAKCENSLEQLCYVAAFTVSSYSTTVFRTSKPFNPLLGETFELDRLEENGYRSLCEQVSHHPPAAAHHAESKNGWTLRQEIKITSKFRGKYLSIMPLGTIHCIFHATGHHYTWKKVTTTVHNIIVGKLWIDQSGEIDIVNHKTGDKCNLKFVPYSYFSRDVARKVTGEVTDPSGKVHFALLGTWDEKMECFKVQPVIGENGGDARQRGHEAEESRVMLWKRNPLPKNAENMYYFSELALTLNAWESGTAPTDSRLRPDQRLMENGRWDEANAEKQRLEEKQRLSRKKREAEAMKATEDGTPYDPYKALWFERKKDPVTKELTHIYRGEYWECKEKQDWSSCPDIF
Put plainly: competitive fluorescence polarization. Type of assay: binding.

As for `C[C@H](CCC(=O)NCCCOCCCCOCCCNC(=O)OC(C)(C)C)[C@H]1CC[C@H]2[C@@H]3CC=C4C[C@@H](O)CC[C@]4(C)[C@H]3CC[C@]12C` [C3_Boc, oxybipin-2], the IC50 came to 74 nM.

For `C[C@H](CCC(=O)NCCCOCCCCOCCCNC(=O)CC12CC3CC(CC(C3)C1)C2)[C@H]1CC[C@H]2[C@@H]3CC=C4C[C@@H](O)CC[C@]4(C)[C@H]3CC[C@]12C` [C3_HyT, oxybipin-1], the half-maximal inhibitory concentration (IC50) came to 142 nM.
